Test results taken from US11608320B2, “Oxazolidinone hydroxamic acid derivatives” (KUWAIT UNIVERSITY, priority 2020, dated 2023).

Molecular target: T1, recombinant human 5-LO enzyme (Homo sapiens, UniProt P09917)
T1 sequence (P09917 1-674): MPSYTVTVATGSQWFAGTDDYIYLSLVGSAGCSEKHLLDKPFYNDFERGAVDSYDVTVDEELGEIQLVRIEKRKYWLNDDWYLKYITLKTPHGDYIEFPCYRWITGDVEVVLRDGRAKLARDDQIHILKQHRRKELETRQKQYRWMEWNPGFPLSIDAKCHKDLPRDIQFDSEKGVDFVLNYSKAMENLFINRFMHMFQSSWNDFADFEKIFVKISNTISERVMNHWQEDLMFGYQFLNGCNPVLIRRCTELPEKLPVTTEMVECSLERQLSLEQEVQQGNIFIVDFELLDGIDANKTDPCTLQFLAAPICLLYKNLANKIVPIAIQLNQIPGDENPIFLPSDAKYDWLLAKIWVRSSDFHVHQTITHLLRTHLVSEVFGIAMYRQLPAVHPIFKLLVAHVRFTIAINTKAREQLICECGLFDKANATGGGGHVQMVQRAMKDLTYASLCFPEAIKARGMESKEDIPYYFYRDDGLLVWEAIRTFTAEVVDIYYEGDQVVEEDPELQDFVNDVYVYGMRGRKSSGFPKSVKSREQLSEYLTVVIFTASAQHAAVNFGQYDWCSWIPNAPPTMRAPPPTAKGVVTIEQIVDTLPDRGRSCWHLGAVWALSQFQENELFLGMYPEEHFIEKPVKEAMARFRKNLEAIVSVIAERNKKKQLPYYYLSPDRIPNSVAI
Assay: Direct 5-LO inhibitory activity in a cell-free assay (H2DCF-DA fluorescence)
Assay type: biochemical
Settings: cell-free, recombinant human 5-LO; read-out: Inhibitory Activity IC50, Human recomb. 5-LO

SMILES: CCCCCCCC(=O)N(O)C[C@H]1CN(c2ccc(N3CCOCC3)c(F)c2)C(=O)O1 [PH-251, (R)—N-((3-(3-fluoro-4-morpholinophenyl)-2-oxooxazolidin-5-yl)methyl)-N-hydroxyoctanamide]
- IC50: 1600 nM
